Assay results reported in US20240246946A1, “MODULATORS OF TREX1” (Constellation Pharmaceuticals, Inc., priority 2021, published 2024).

How the values were obtained:
full length human TREX1 = biological target: T1, full length human TREX1 (Homo sapiens, UniProt Q9NSU2); experiment: hTREX1 Biochemical Assay (fluorescence, dsDNA substrate degradation); conditions: biochemical, read-out: hTREX1 IC50
T1 construct: N-terminally His-Tev tagged full length human TREX1; made in house; host or cells: E. coli
T1 sequence (Q9NSU2 1-314): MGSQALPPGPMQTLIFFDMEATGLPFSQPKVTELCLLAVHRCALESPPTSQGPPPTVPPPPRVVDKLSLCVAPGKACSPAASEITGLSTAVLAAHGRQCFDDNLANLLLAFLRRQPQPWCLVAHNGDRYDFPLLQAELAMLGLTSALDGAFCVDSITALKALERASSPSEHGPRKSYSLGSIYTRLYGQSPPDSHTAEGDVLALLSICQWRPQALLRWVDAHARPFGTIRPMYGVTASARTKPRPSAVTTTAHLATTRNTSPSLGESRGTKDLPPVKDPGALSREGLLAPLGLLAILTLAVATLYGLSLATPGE
Procedure, shortened: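 Cleavage of 60 nM TEX615/quencher-labelled dsDNA in pH 7.4 Tris buffer with 5 mM MgCl2, 1.0% DMSO, run 18 hours at 25° C, EDTA-quenched; fluorescence read-out.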

[1] = biological target: T2, human TREX2 (residues M44-A279) (Homo sapiens, UniProt Q9BQ50); experiment: hTREX2 Biochemical Assay (fluorescence, dsDNA substrate degradation); conditions: biochemical selectivity for hTREX1 vs hTREX2
T2 construct: human TREX2 (residues M44-A279, expressed in E. coli); made in house; host or cells: E. coli
T2 sequence (Q9BQ50 44-279 isoform Q9BQ50-1): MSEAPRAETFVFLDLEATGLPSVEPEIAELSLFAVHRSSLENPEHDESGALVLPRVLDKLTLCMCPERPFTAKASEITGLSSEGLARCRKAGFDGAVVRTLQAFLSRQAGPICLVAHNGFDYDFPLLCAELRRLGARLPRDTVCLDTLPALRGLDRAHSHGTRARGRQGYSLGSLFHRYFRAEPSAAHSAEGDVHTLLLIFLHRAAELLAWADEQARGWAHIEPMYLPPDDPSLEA
Procedure, shortened: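 N-His-Tev E. coli enzyme (50 pM) pre-incubated with compound 4 h at 25 °C, then 60 nM TEX615/quencher dsDNA added; 18 h at 25 °C, pH 7.4 Tris buffer with 5 mM MgCl2, 1.0% DMSO. EDTA-quenched; fluorescence 570 ex/615 em from liberated fluorophore, 10-point dose-response.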

full length mouse TREX1 = biological target: T3, full length mouse TREX1 (Mus musculus, UniProt Q91XB0); experiment: mTREX1 Biochemical Assay (fluorescence, dsDNA substrate degradation); conditions: biochemical, read-out: mTREX1 IC50
T3 construct: N-terminally His-Tev tagged full length mouse TREX1; made in house; host or cells: E. coli
T3 sequence (Q91XB0 1-314): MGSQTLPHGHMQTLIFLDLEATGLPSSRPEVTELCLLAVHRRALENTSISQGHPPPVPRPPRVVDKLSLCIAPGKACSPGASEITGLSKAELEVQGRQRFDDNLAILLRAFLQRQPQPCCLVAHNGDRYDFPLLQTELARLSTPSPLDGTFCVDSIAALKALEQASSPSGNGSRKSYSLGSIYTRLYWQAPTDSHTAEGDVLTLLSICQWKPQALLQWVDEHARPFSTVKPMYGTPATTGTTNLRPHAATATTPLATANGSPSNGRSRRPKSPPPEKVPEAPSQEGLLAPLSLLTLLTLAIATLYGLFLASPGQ
Procedure, shortened: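 Reaction run 18 h at 25° C. with 60 nM TEX615/quencher-labelled dsDNA and 6 pM mouse TREX1 in Tris buffer (pH 7.4, 5 mM MgCl2, 1.0% DMSO), enzyme having sat 4 h with compound across 10 concentrations. EDTA quench; substrate degradation measured as fluorescence increase.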

hTREX1 = biological target: T4, hTREX1 (Homo sapiens, UniProt Q9NSU2); experiment: hTREX1 HCT116 Cell Assay (HCT116 dual cells, Lucia luciferase reporter of Type I interferon induction); type: cell-based; conditions: TREX1i 4 h before pBR322/BstNI transfection, read after 48 h
T4 construct: host or cells: HCT116 dual cells
T4 sequence (Q9NSU2 1-314): T1 sequence (Q9NSU2 1-314)
Text: HCT116 dual cells (Invivogen, San Diego, CA, USA) are derived from the human HCT116 colorectal carcinoma cell line. Cells have been selected for the stable integration of SEAP and Luciferase reporter genes, which expression is under the control of 5 tandem response elements for NF-KB/AP1 and STAT1/STAT2, respectively. The cell line was used to monitor Type I interferon induction and subsequent signaling by measuring the activity of the Lucia luciferase secreted in the culture medium.
HCT116 cells were plated in 96-well plate(s) at 40,000 cells/well in 100 uL DMEM supplemented with 10% FBS and 25 mM Hepes (pH 7.2-7.5). After overnight settling, cells were treated with TREX1i for 4 h (maximum DMSO fraction was 0.1%) before 1 ug/mL pBR322/BstNI restriction digest (New England Biolabs, Ipswich, MA, USA) was transfected with Lipofectamine LTX (ThermoFisher, Grand Island, NY, USA), according to product manual recommendations. Briefly, Lipofectamine LTX (0.35 uL/well) was diluted in OptiMEM (5 uL/well). pBR322/BstNI (100 ng/well) was diluted in OptiMEM (5 uL/well) before Plus reagent (0.1 uL/100 ng DNA) was added. After 5 min incubation at room temperature, the DNA mixture was mixed dropwise with the diluted Lipofectamine LTX. After an additional 10 min incubation, the transfection mix (10 uL/well) was added to the cells. Cells were maintained at 37 C for 48 h before monitoring the Lucia Luciferase activity from the cell culture medium.

Compound | IC50 (full length human TREX1) [nM] | hTREX1 vs hTREX2 selectivity [1] | IC50 (full length mouse TREX1) [nM] | IC50 (hTREX1) [nM]
Cc1nn(C)cc1C(c1ccccc1C#N)C(C)c1nc(C(=O)Nc2cnoc2)c(O)c(=O)n1C (single isomer, unassigned) [Example 3 D1E1] | < 1 | C (C = >50 fold selective for hTREX1) | < 1 | < 10
CC(c1nc(C(=O)Nc2cnoc2)c(O)c(=O)n1C)C(c1ccccc1Cl)n1nccc1C(N)=O (single isomer, unassigned) [Example 147 D1E1] | < 1 | C (C = >50 fold selective for hTREX1) | > 10 | 10 to 100
CC(c1nc(C(=O)Nc2cnoc2)c(O)c(=O)n1C)C(c1cnn(C)c1)c1ccc(C(=O)N(C)C)cc1C#N (single isomer, unassigned) [Example 11 D1E1] | < 1 | B (B = 25 to 50-fold selective for hTREX1) | < 1 | > 100
CC(c1nc(C(=O)Nc2cnoc2)c(O)c(=O)n1C)C(c1ccccc1C#N)c1ccnn1C (single isomer, unassigned) [Example 1 D1E1] | 1 to 10 | A (A = <25 fold selective for hTREX1) | 1 to 10 | 10 to 100
CCn1cc(C(c2ccccc2Cl)C(C)c2nc(C(=O)Nc3cnoc3)c(O)c(=O)n2C)cn1 (single isomer, unassigned) [Example 85 D1E2] | 1 to 10 | A (A = <25 fold selective for hTREX1) | > 10 | > 100
COCCn1ncc(C(c2cc(F)ccc2C#N)C(C)c2nc(C(=O)Nc3cnoc3)c(O)c(=O)n2C)c1C (single isomer, unassigned) [Example 104 D1E1] | 1 to 10 | B (B = 25 to 50-fold selective for hTREX1) | 1 to 10 | > 100
CC(c1nc(C(=O)Nc2cnoc2)c(O)c(=O)n1C)C(c1ccccc1Cl)n1cc(C(F)(F)F)cn1 (single isomer, unassigned) [Example 139 D1E1] | 1 to 10 | A (A = <25 fold selective for hTREX1) | 1 to 10 | > 100
CC(c1nc(C(=O)Nc2cnoc2)c(O)c(=O)n1C)C(c1ccccc1C#N)c1cn(C)nc1F (single isomer, unassigned) [Example 91 D1E2] | > 10 | A (A = <25 fold selective for hTREX1) | > 10 | > 100
CC(c1nc(C(=O)Nc2cnoc2)c(O)c(=O)n1C)C(c1ccccc1Cl)n1cccn1 (single isomer, unassigned) [Example 45 D1E1] | 1 to 10 | B (B = 25 to 50-fold selective for hTREX1) | > 10 | > 100
CC(c1nc(C(=O)Nc2cnoc2)c(O)c(=O)n1C)C(c1ccccc1Cl)n1nccc1C#N (single isomer, unassigned) [Example 140 D1E1] | < 1 | B (B = 25 to 50-fold selective for hTREX1) | 1 to 10 | 10 to 100
CC(c1nc(C(=O)Nc2cnoc2)c(O)c(=O)n1C)C(c1cnn(CC(F)F)c1)c1cc(F)ccc1C#N (single isomer, unassigned) [Example 102 D1E2] | < 1 | B (B = 25 to 50-fold selective for hTREX1) | 1 to 10 | 10 to 100
Cc1cnc(C)c(C(c2cc(F)ccc2C#N)C(C)c2nc(C(=O)Nc3cnoc3)c(O)c(=O)n2C)n1 (single isomer, unassigned) [Example 119 D1E2] | > 10 | B (B = 25 to 50-fold selective for hTREX1) | > 10 | > 100
Cc1n[nH]c(C)c1C(c1ccccc1C#N)C(C)c1nc(C(=O)Nc2cnoc2)c(O)c(=O)n1C (single isomer, unassigned) [Example 95 D1E2] | > 10 | A (A = <25 fold selective for hTREX1) | > 10 | > 100
CC(c1nc(C(=O)Nc2cnoc2)c(O)c(=O)n1C)C(c1ccccc1Cl)c1nncn1C (single isomer, unassigned) [Example 152 D1E1] | > 10 | B (B = 25 to 50-fold selective for hTREX1) | > 10 | > 100
Cc1ncc(C(c2ccccc2C#N)C(C)c2nc(C(=O)Nc3cnoc3)c(O)c(=O)n2C)nc1C (single isomer, unassigned) [Example 81 D2E1] | 1 to 10 | B (B = 25 to 50-fold selective for hTREX1) | > 10 | > 100
Cc1cc(C(c2ccccc2C#N)C(C)c2nc(C(=O)Nc3cnoc3)c(O)c(=O)n2C)ccn1 (single isomer, unassigned) [Example 6 D1E1] | < 1 | C (C = >50 fold selective for hTREX1) | < 1 | < 10

Results, then the molecule that gave them:

IC50 (full length human TREX1) [nM] | hTREX1 vs hTREX2 selectivity [1] | IC50 (full length mouse TREX1) [nM] | IC50 (hTREX1) [nM] | Compound
1 to 10 | C (C = >50 fold selective for hTREX1) | > 10 | > 100 | COCCn1cc(C(c2ccccc2C#N)C(C)c2nc(C(=O)Nc3cnoc3)c(O)c(=O)n2C)cn1 (single isomer, unassigned) [Example 9 D2E1]
< 1 | C (C = >50 fold selective for hTREX1) | < 1 | 10 to 100 | COCCn1cc(C(c2cc(F)ccc2C#N)C(C)c2nc(C(=O)Nc3cnoc3)c(O)c(=O)n2C)c(C)n1 (single isomer, unassigned) [Example 103 D1E2]
1 to 10 | A (A = <25 fold selective for hTREX1) | 1 to 10 | > 100 | CC(c1nc(C(=O)Nc2cnoc2)c(O)c(=O)n1C)C(c1cnn(CC(C)(C)O)c1)c1cc(F)ccc1Cl (single isomer, unassigned) [Example 92 D1E1]
1 to 10 | C (C = >50 fold selective for hTREX1) | > 10 | 10 to 100 | Cc1nn(C)cc1C(c1cc(F)ccc1C#N)C(C)c1nc(C(=O)Nc2cnoc2)c(O)c(=O)n1C (single isomer, unassigned) [Example 57 D1E1]
> 10 | A (A = <25 fold selective for hTREX1) | > 10 | > 100 | CC(c1nc(C(=O)Nc2cnoc2)c(O)c(=O)n1C)C(c1cnn(C)c1)c1ccccc1C#N (single isomer, unassigned) [Example 2 D1E2]
1 to 10 | A (A = <25 fold selective for hTREX1) | > 10 | > 100 | Cc1cc(C(c2cc(F)ccc2C#N)C(C)c2nc(C(=O)Nc3cnoc3)c(O)c(=O)n2C)nn1C (single isomer, unassigned) [Example 112 D2E1]
